{
  "source": "paper PMC7796184",
  "about": "“Phytochemical Characterization, In Vitro Anti-Inflammatory, Anti-Diabetic, and Cytotoxic Activities of the Edible Aromatic Plant; Pulicaria jaubertii” (Molecules, 2021)",
  "key": {"red blood cells (RBCs)": {"test_system": "red blood cells (RBCs)", "test": "Membrane stabilizing activity, hypotonic solution-induced hemolysis of RBCs", "format": "cell-based, rats", "settings": "Erythrocyte, 10 min; rat RBCs, hypotonic solution pH 7.4, 10 min; triplicate; read-out: Membrane stabilization IC50 (inhibition of RBCs hemolysis)", "experimental": "The method was conducted according to the literature. Erythrocyte suspension was prepared by withdrawing blood samples from rats with heparinized syringes through cardiac puncture. Then, phosphate buffer was used to wash blood samples three times with centrifugation after each washing at 3000 rpm for 10 min. […] Control samples were prepared by similar manner without extracts or indomethacin. Afterward, previous mixtures were withstanding for 10 min in room condition and subjected to 10 min centrifugation at 3000 rpm."}, "[1]": {"test_system": "hepatocarcinoma (HepG-2) cell line", "test": "cells", "settings": "Homo sapiens, HepG2, read-out: Cytotoxicity IC50", "procedure": "(§1) All cells were obtained from the American Type Culture Collection (ATCC, Rockville, MD, USA) and were cultured on RPMI 1640 medium supplemented with 10% inactivated fetal calf serum and 50 μg/mL gentamycin. The cells were maintained at 37 °C in a humidified atmosphere with 5% CO2 and were sub cultured two to three times a week. Cell viability percentage was calculated by the equation: Cell viability % = Ac/At × 100(5) where Ac = Absorbance obtained from of control cells, At = Absorbance obtained from treated cells."}, "[2]": {"test_system": "breast carcinoma (MCF-7) cell line", "test": "cells", "settings": "Homo sapiens, MCF7, read-out: Cytotoxicity IC50", "procedure": "as §1"}, "[3]": {"test_system": "prostate carcinoma (PC-3) cell line", "test": "cells", "settings": "Homo sapiens, PC-3, read-out: Cytotoxicity IC50", "procedure": "as §1"}, "U937 human monocytes": {"test_system": "U937 human monocytes", "test": "Histamine release assay (EIA kit) in PMA-treated U937 cells", "format": "cell-based", "settings": "U-937, 20 nM Phorbol Myristate Acetate, 1 h, triplicate, read-out: Histamine release inhibition IC50", "experimental": "In accordance with literature, extracts or standard diclofenac (7.81–1000 μg/mL) were added to U937 cells seeded in a 96-well plate in a concentration of 50,000 in presence or absence of 20 nM Phorbol Myristate Acetate. After 1 h, the treated and untreated cell cultures supernatants were collected and centrifuged at 10,000 rpm for 5 min at 4 °C. Then the samples were evaluated for released histamine by a commercially available EIA kit (SPI-Bio, Montigny le Bretonneux, France)."}},
  "data": [
    {"compound": "COc1ccc2c(c1)c(CC(=O)O)c(C)n2C(=O)c1ccc(Cl)cc1", "note": "[Indomethacin]", "values": [
      {"measurement": "IC50", "setting": "red blood cells (RBCs)", "value": "17 ± 0.72", "unit": "µg/mL"}
    ]},
    {"compound": "CC[C@]1(O)C[C@@H]2CN(CCc3c([nH]c4ccccc34)[C@@](C(=O)OC)(c3cc4c(cc3OC)N(C)[C@H]3[C@@](O)(C(=O)OC)[C@H](OC(C)=O)[C@]5(CC)C=CCN6CC[C@]43[C@@H]65)C2)C1", "note": "[Vinblastine]", "values": [
      {"measurement": "IC50", "setting": "[1]", "value": "4.6 ± 0.17", "unit": "µg/mL"},
      {"measurement": "IC50", "setting": "[2]", "value": "4.6 ± 0.18", "unit": "µg/mL"},
      {"measurement": "IC50", "setting": "[3]", "value": "5.5 ± 0.4", "unit": "µg/mL"}
    ]},
    {"compound": "O=C(O)Cc1ccccc1Nc1c(Cl)cccc1Cl", "note": "[Diclofenac]", "values": [
      {"measurement": "IC50", "setting": "U937 human monocytes", "value": "17.9 ± 1.6", "unit": "µg/mL"}
    ]}
  ]
}
